Data set [1] relates to Phytophthora infestans. Format: in vivo.
Data set [2] deals with Pseudoperonospora cubensis. The data set can be described thus: Test J: cucumber downy mildew, spray before inoculation, cucumber seedlings, mixtures with Colby expected values. It counts as in vivo. The settings on record: Table C. From the text: General protocol for preparing test compositions for Tests I-K: Amisulbrom was formulated and ametoctradin was obtained as unformulated, technical-grade materials. Compound 1 were formulated as an oil dispersion containing a mixture of POE (polyoxyethylene) 40 sorbitol hexaoleate, POE 20 sorbitan trioleate, and alkyl-peg resin surfactants in a liquid carrier consisting of a distilled C18 fatty acid methyl ester. Ametoctradin was first dissolved in acetone and then suspended at the desired concentration (in ppm) in acetone and purified water (50/50 mix by volume) containing 250 ppm of the surfactant Trem® 014 (polyhydric alcohol esters). Amisulbrom was dispersed in sufficient water to give the desired concentration, and neither organic solvent nor surfactant was added to the suspension. The resulting test mixtures were then used in Tests I-K. Spraying a 200 ppm test mixture to the point of run-off on the test plants was the equivalent of a rate of 800 g/ha. The tests were replicated three times and the results reported as the mean average of the three replicates.
The presence of a synergistic effect between two active ingredients was established with the aid of the Colby equation (see Colby, S. R. “Calculating Synergistic and Antagonistic Responses of Herbicide Combinations”, Weeds, (1967), 15, 20-22):
Using the method of Colby, the presence of a synergistic interaction between two active ingredients is established by first calculating the predicted activity, p, of the mixture based on activities of the two components applied alone. If p is lower than the experimentally established effect, synergism has occurred. In the equation above, A is the fungicidal activity in percentage control of one component applied alone at rate x. The B term is the fungicidal activity in percentage control of the second component applied at rate y. The equation estimates p, the expected fungicidal activity of the mixture of A at rate x with B at rate y if their effects are strictly additive and no interaction has occurred.
The test mixture was sprayed to the point of run-off on cucumber seedlings. The following day the seedlings were inoculated with a spore suspension of Pseudoperonospora cubensis (the causal agent of cucumber downy mildew) and incubated in saturated atmosphere at 20° C. for 24 h, and moved to a growth chamber at 20° C. for 6 days, after which time disease ratings were made.
Results for Tests I to K are given in Tables C-E. Each table corresponds to a set of evaluations performed together at the same time. In each table, a rating of 100 indicates 100% disease control and a rating of 0 indicates no disease control (relative to the controls). Columns labeled “Obsd” indicate the average of results observed from three replications. Columns labeled “Exptd” indicate the expected value for each treatment mixture using the Colby equation.

In data set [3] the test system is Phytophthora infestans. It counts as in vivo. The settings on record: Table E.
A short description of data set [4]: Stability experiments for solid forms of Compound 1 (temperature and humidity, XRPD). It counts as physicochemical. From the text: The physical stability of polymorph Form A was characterized. […] Samples of Form A exposed to 53, 75, and 85% relative humidity at ambient temperature (10 days) were also unchanged, as determined by XRPD.
The physical stability of polymorph Form B was characterized.
The physical stability of the amorphous material was characterized.

A short description of data set [5]: Relative stability experiments for polymorph Form A and Form B (DSC heat of fusion rule, competitive interconversion). It counts as physicochemical. On the procedure:
Differential scanning calorimetry was performed on a Thermal Analysis Q2000 Differential Scanning Calorimeter. A sample (2.3 mg) was placed in an aluminum DSC pan. The sample cell was heated under a nitrogen purge at 10° C./minute. Indium metal was used as the calibration standard.
The relative stability of polymorphic Forms A and B of Compound 1 was characterized with Differential Scanning Calorimetry and a competitive interconversion experiment. Phase transitions of solids can be thermodynamically reversible or irreversible. Crystalline polymorphs which transform reversibly at a specific transition temperature (Ttr) are called enantiotropic polymorphs. If the crystalline polymorphs are not interconvertable, the system is monotropic (i.e. one polymorph is thermodynamically stable relative to the other over the entire temperature range up to melting). The relationship between forms can be determined by the application of the heat of fusion rule (Burger, A.; Ramberger, R. Mikrochim. Acta [Wein], 1979 II, 259-271). The rule states that if the higher melting form has the lower heat of fusion, then the two forms are enantiotropic. Otherwise, they are monotropic.
To support this conclusion, a competitive interconversion experiment between polymorph Forms A and B was performed in ethanol at room temperature. […]

Setting [6] is: Table C, component (b) alone 0.08 ppm.
The mark [7] stands for this setting: Table C, component (b) alone 0.4 ppm.
Where [8] appears, read: Table C, component (b) alone 2 ppm.
Setting [9] is: Table C, component (b) alone 10 ppm.
Where [10] appears, read: Table C, component (b) alone 40 ppm.
The mark [11] stands for this setting: Table D, component (b) alone 0.08 ppm.
The mark [12] stands for this setting: Table D, component (b) alone 0.4 ppm.
Setting [13] is: Table D, component (b) alone 2 ppm.
Where [14] appears, read: Table D, component (b) alone 10 ppm.

Read-outs that look alike come from different tables or passages of the source.

Experimental findings from patent publication US9062040B2 (priority 2009, dated 2015) are described below.

As to `Cc1cc(C(F)(F)F)nn1CC(=O)N1CCC(c2nc(C3=NOC(c4c(F)cccc4F)C3)cs2)CC1` (racemic) [Compound 1, 1-[4-[4-[5-(2,6-difluorophenyl)-4,5-dihydro-3-isoxazolyl]-2-thiazolyl]-1-piperidinyl]-2-[5-methyl-3-(trifluoromethyl)-1H-pyrazol-1-yl]ethanone], the “Test I Obsd” value stood at 39% in data set [1] (Table C, Compound 1 alone 0.00001 ppm); 63% in data set [1] (Table C, Compound 1 alone 0.0001 ppm); 72% in data set [1] (Table C, Compound 1 alone 0.001 ppm); 100% in data set [1] (Table C, Compound 1 alone 0.01 ppm); 100% in data set [1] (Table C, Compound 1 alone 0.1 ppm); 0% in data set [1] (Table D, Compound 1 alone 0.00001 ppm). Moreover, the “Test I Obsd” value in data set [1] (Table D, Compound 1 alone 0.0001 ppm) worked out at 0%; in data set [1] (Table D, Compound 1 alone 0.001 ppm) it was 80%; in data set [1] (Table D, Compound 1 alone 0.01 ppm) it was 93%; in data set [1] (Table D, Compound 1 alone 0.1 ppm), 100%. For the same compound, the “Test J Obsd” value worked out at 17% in data set [2] (Compound 1 alone 0.00001 ppm); 47% in data set [2] (Compound 1 alone 0.0001 ppm); 40% in data set [2] (Compound 1 alone 0.001 ppm); 94% in data set [2] (Compound 1 alone 0.01 ppm); 100% in data set [2] (Compound 1 alone 0.1 ppm). Moreover, the “Test K Obsd” value in data set [3] (Compound 1 alone 0.001 ppm) was 0%; in data set [3] (Compound 1 alone 0.01 ppm), 17%; in data set [3] (Compound 1 alone 0.1 ppm) it was 80%; in data set [3] (Compound 1 alone 1 ppm) it was 99%; in data set [3] (Compound 1 alone 10 ppm), 100%.
For the compound `Cc1cc(C(F)(F)F)nn1CC(=O)N1CCC(c2nc(C3=NOC(c4c(F)cccc4F)C3)cs2)CC1` (racemic) [polymorph Form B, 1-[4-[4-[5-(2,6-difluorophenyl)-4,5-dihydro-3-isoxazolyl]-2-thiazolyl]-1-piperidinyl]-2-[5-methyl-3-(trifluoromethyl)-1H-pyrazol-1-yl]ethanone], the “physical stability by XRPD” value is “unchanged” in data set [4] (exposed to 85% relative humidity at ambient temperature (10 days)); “remained unchanged” in data set [4] (maintained at 40° C. and 25° C. for 4 days). In data set [5] (DSC data of Characterization Example 3, forms monotropically related), the “relative stability by heat of fusion rule from DSC data” value is “most stable form throughout the temperature range up to the melt”. In addition, in data set [5] (equal amounts of Forms A and B in saturated ethanol, room temperature, stirred 4 days, solids identified by XRPD), the “relative stability, competitive interconversion experiment” value is listed as “more stable than polymorph Form A”.
In the case of `Cc1c(Br)c2ccc(F)cc2n1S(=O)(=O)c1ncn(S(=O)(=O)N(C)C)n1` [Amisulbrom, amisulbrom], the “Test I Obsd” value in data set [1] (setting [6]) was found to be 57%; in data set [1] (setting [7]) it was 52%; in data set [1] (setting [8]) it was 82%; in data set [1] (setting [9]), 100%; in data set [1] (setting [10]), 100%; in data set [1] (Table D, component (b) alone 0.016 ppm), 0%. Also, the “Test I Obsd” value in data set [1] (setting [11]) amounted to 9%; in data set [1] (setting [12]) it was 63%; in data set [1] (setting [13]) it was 85%; in data set [1] (setting [14]), 86%. Besides, the “Test J Obsd” value amounted to 0% in data set [2] (component (b) alone 0.08 ppm); 0% in data set [2] (component (b) alone 0.4 ppm); 95% in data set [2] (component (b) alone 2 ppm); 100% in data set [2] (component (b) alone 10 ppm); 100% in data set [2] (component (b) alone 40 ppm). Also, the “Test K Obsd” value in data set [3] (component (b) alone 0.4 ppm), in data set [3] (component (b) alone 2 ppm), in data set [3] (component (b) alone 10 ppm), in data set [3] (component (b) alone 40 ppm) and in data set [3] (component (b) alone 200 ppm) was 0% in each case.
In the case of `Cc1cc(C(F)(F)F)nn1CC(=O)N1CCC(c2nc(C3=NOC(c4c(F)cccc4F)C3)cs2)CC1` (stereo not drawn) [Amorphous Compound 1, 1-[4-[4-[5-(2,6-difluorophenyl)-4,5-dihydro-3-isoxazolyl]-2-thiazolyl]-1-piperidinyl]-2-[5-methyl-3-(trifluoromethyl)-1H-pyrazol-1-yl]ethanone], the “physical stability by XRPD” value in data set [4] (elevated temperatures (60, 80 and 100° C.) and humidities (75 and 85% relative humidity) for 10-12 days) is on record as “remained unchanged”. Moreover, the “stability of the pure solid form (summary of Characterization Example 4)” value in data set [4] was “stable and non-hydrated”.
Take `CCCCCCCCc1c(CC)nc2ncnn2c1N` [Ametoctradin, ametoctradin]: the “Test I Obsd” value in data set [1] (setting [6]) is 8%; in data set [1] (setting [7]), 23%; in data set [1] (setting [8]), 63%; in data set [1] (setting [9]), 83%; in data set [1] (setting [10]) it was 83%; in data set [1] (setting [11]), 9%. Also, the “Test I Obsd” value was 0% in data set [1] (setting [12]); 0% in data set [1] (setting [13]); 94% in data set [1] (setting [14]); 93% in data set [1] (Table D, component (b) alone 40 ppm). The “Test J Obsd” value in data set [2] (component (b) alone 0.08 ppm) is recorded as 0%; in data set [2] (component (b) alone 0.4 ppm), 0%; in data set [2] (component (b) alone 2 ppm), 0%; in data set [2] (component (b) alone 10 ppm) it was 26%; in data set [2] (component (b) alone 40 ppm) it was 95%. Further, the “Test K Obsd” value in data set [3] (component (b) alone 0.4 ppm), in data set [3] (component (b) alone 2 ppm), in data set [3] (component (b) alone 10 ppm), in data set [3] (component (b) alone 40 ppm) and in data set [3] (component (b) alone 200 ppm) was 0% in each case.
On to `Cc1cc(C(F)(F)F)nn1CC(=O)N1CCC(c2nc(C3=NOC(c4c(F)cccc4F)C3)cs2)CC1` (racemic) [polymorph Form A, 1-[4-[4-[5-(2,6-difluorophenyl)-4,5-dihydro-3-isoxazolyl]-2-thiazolyl]-1-piperidinyl]-2-[5-methyl-3-(trifluoromethyl)-1H-pyrazol-1-yl]ethanone], for which the “physical stability by XRPD” value in data set [4] (exposed to 53, 75, and 85% relative humidity at ambient temperature (10 days)) is “unchanged”; in data set [4] (maintained at 40, 60, and 80° C. for 4 days) it was “remained unchanged”. The “stability of the pure solid form (summary of Characterization Example 4)” value in data set [4] was “physically stable and non-hydrated”.
